Laboratory results as given in the NIST ThermoML archive (doi:10.1021/je060339m).

Details: Liquid

CCCCCOC(C)=O [pentyl ethanoate]
Details	mass density [kg/m3]
298.15 K, 100 kPa	871.4
298.15 K, 1000 kPa	871.9
298.15 K, 2000 kPa	872.7
298.15 K, 2700 kPa	873.3
298.15 K, 3000 kPa	873.5
298.15 K, 5000 kPa	875.3
298.15 K, 10000 kPa	879.1
298.15 K, 15000 kPa	882.7
298.15 K, 20000 kPa	886.2
298.15 K, 25000 kPa	889.6
298.15 K, 30000 kPa	893.6
298.15 K, 35000 kPa	897.9
303.15 K, 100 kPa	866.5
303.15 K, 1000 kPa	867.1
303.15 K, 2000 kPa	867.9
303.15 K, 2700 kPa	868.5
303.15 K, 3000 kPa	868.7
303.15 K, 5000 kPa	870.5
303.15 K, 10000 kPa	874.4
303.15 K, 15000 kPa	878.1
303.15 K, 20000 kPa	881.6
303.15 K, 25000 kPa	885.1
303.15 K, 30000 kPa	889.4
303.15 K, 35000 kPa	893.8
308.15 K, 100 kPa	861.6
308.15 K, 1000 kPa	862.2
308.15 K, 2000 kPa	863.1
308.15 K, 2700 kPa	863.7
308.15 K, 3000 kPa	863.9
308.15 K, 5000 kPa	865.8
308.15 K, 10000 kPa	869.8
308.15 K, 15000 kPa	873.6
308.15 K, 20000 kPa	877.3
308.15 K, 25000 kPa	880.8
308.15 K, 30000 kPa	885.2
308.15 K, 35000 kPa	889.7
313.15 K, 100 kPa	856.7
313.15 K, 1000 kPa	857.4
313.15 K, 2000 kPa	858.3
313.15 K, 2700 kPa	858.9
313.15 K, 3000 kPa	859.2
313.15 K, 5000 kPa	861
313.15 K, 10000 kPa	865.2
313.15 K, 15000 kPa	869
313.15 K, 20000 kPa	872.8
313.15 K, 25000 kPa	876.4
313.15 K, 30000 kPa	880.9
313.15 K, 35000 kPa	885.5
318.15 K, 100 kPa	851.9
318.15 K, 1000 kPa	852.6
318.15 K, 2000 kPa	853.5
318.15 K, 2700 kPa	854.2
318.15 K, 3000 kPa	854.4
318.15 K, 5000 kPa	856.4
318.15 K, 10000 kPa	860.7
318.15 K, 15000 kPa	864.7
318.15 K, 20000 kPa	868.5
318.15 K, 25000 kPa	872.3
318.15 K, 30000 kPa	876.9
318.15 K, 35000 kPa	881.7
323.15 K, 100 kPa	847.1
323.15 K, 1000 kPa	847.7
323.15 K, 2000 kPa	848.7
323.15 K, 2700 kPa	849.3
323.15 K, 3000 kPa	849.6
323.15 K, 5000 kPa	851.7
323.15 K, 10000 kPa	856.1
323.15 K, 15000 kPa	860.2
323.15 K, 20000 kPa	864.2
323.15 K, 25000 kPa	868.1
323.15 K, 30000 kPa	872.8
323.15 K, 35000 kPa	877.6
328.15 K, 100 kPa	842.3
328.15 K, 1000 kPa	843.2
328.15 K, 2000 kPa	844.4
328.15 K, 2700 kPa	845.2
328.15 K, 3000 kPa	845.5
328.15 K, 5000 kPa	847.1
328.15 K, 10000 kPa	851.6
328.15 K, 15000 kPa	855.9
328.15 K, 20000 kPa	860
328.15 K, 25000 kPa	864.1
328.15 K, 30000 kPa	869
328.15 K, 35000 kPa	874
333.15 K, 100 kPa	837.8
333.15 K, 1000 kPa	838.7
333.15 K, 2000 kPa	839.8
333.15 K, 2700 kPa	840.5
333.15 K, 3000 kPa	840.8
333.15 K, 5000 kPa	842.7
333.15 K, 10000 kPa	847.4
333.15 K, 15000 kPa	851.8
333.15 K, 20000 kPa	856
333.15 K, 25000 kPa	860.1
333.15 K, 30000 kPa	865.1
333.15 K, 35000 kPa	870.2
338.15 K, 100 kPa	832.9
338.15 K, 1000 kPa	834
338.15 K, 2000 kPa	835.1
338.15 K, 2700 kPa	835.8
338.15 K, 3000 kPa	836.1
338.15 K, 5000 kPa	838.1
338.15 K, 10000 kPa	842.9
338.15 K, 15000 kPa	847.5
338.15 K, 20000 kPa	851.9
338.15 K, 25000 kPa	856.2
338.15 K, 30000 kPa	861.3
338.15 K, 35000 kPa	866.5
343.15 K, 100 kPa	828.3
343.15 K, 1000 kPa	829.3
343.15 K, 2000 kPa	830.4
343.15 K, 2700 kPa	831.2
343.15 K, 3000 kPa	831.5
343.15 K, 5000 kPa	833.5
343.15 K, 10000 kPa	838.5
343.15 K, 15000 kPa	843.2
343.15 K, 20000 kPa	847.7
343.15 K, 25000 kPa	852.1
343.15 K, 30000 kPa	857.3
343.15 K, 35000 kPa	862.7
348.15 K, 100 kPa	823.2
348.15 K, 1000 kPa	824.6
348.15 K, 2000 kPa	825.7
348.15 K, 2700 kPa	826.5
348.15 K, 3000 kPa	826.9
348.15 K, 5000 kPa	828.8
348.15 K, 10000 kPa	834
348.15 K, 15000 kPa	838.9
348.15 K, 20000 kPa	843.5
348.15 K, 25000 kPa	847.9
348.15 K, 30000 kPa	853.3
348.15 K, 35000 kPa	858.8
353.15 K, 100 kPa	818.7
353.15 K, 1000 kPa	819.9
353.15 K, 2000 kPa	821.1
353.15 K, 2700 kPa	821.9
353.15 K, 3000 kPa	822.3
353.15 K, 5000 kPa	824.4
353.15 K, 10000 kPa	829.8
353.15 K, 15000 kPa	835
353.15 K, 20000 kPa	839.7
353.15 K, 25000 kPa	844.3
353.15 K, 30000 kPa	849.8
353.15 K, 35000 kPa	855.4
358.15 K, 100 kPa	811.3
358.15 K, 1000 kPa	812.2
358.15 K, 2000 kPa	813.4
358.15 K, 2700 kPa	814.1
358.15 K, 3000 kPa	814.5
358.15 K, 5000 kPa	816.9
358.15 K, 10000 kPa	822.5
358.15 K, 15000 kPa	827.7
358.15 K, 20000 kPa	832.5
358.15 K, 25000 kPa	838
358.15 K, 30000 kPa	843.9
358.15 K, 35000 kPa	849.7
363.15 K, 100 kPa	806.3
363.15 K, 1000 kPa	807.4
363.15 K, 2000 kPa	808.7
363.15 K, 2700 kPa	809.6
363.15 K, 3000 kPa	809.9
363.15 K, 5000 kPa	812.4
363.15 K, 10000 kPa	818.1
363.15 K, 15000 kPa	823.4
363.15 K, 20000 kPa	828.3
363.15 K, 25000 kPa	833.9
363.15 K, 30000 kPa	839.9
363.15 K, 35000 kPa	845.6
368.15 K, 100 kPa	801.2
368.15 K, 1000 kPa	802.3
368.15 K, 2000 kPa	803.7
368.15 K, 2700 kPa	804.6
368.15 K, 3000 kPa	805
368.15 K, 5000 kPa	807.5
368.15 K, 10000 kPa	813.4
368.15 K, 15000 kPa	818.8
368.15 K, 20000 kPa	824
368.15 K, 25000 kPa	829.8
368.15 K, 30000 kPa	835.9
368.15 K, 35000 kPa	841.4
373.15 K, 100 kPa	795.5
373.15 K, 1000 kPa	796.4
373.15 K, 2000 kPa	797.7
373.15 K, 2700 kPa	799.5
373.15 K, 3000 kPa	799
373.15 K, 5000 kPa	802.5
373.15 K, 10000 kPa	808.2
373.15 K, 15000 kPa	813.9
373.15 K, 20000 kPa	819.8
373.15 K, 25000 kPa	826.3
373.15 K, 30000 kPa	831.3
378.15 K, 100 kPa	790.4
378.15 K, 1000 kPa	791.6
378.15 K, 2000 kPa	793.1
378.15 K, 2700 kPa	794
378.15 K, 3000 kPa	794.4
378.15 K, 5000 kPa	797.1
378.15 K, 10000 kPa	803.5
383.15 K, 100 kPa	786.8
383.15 K, 1000 kPa	788.1
383.15 K, 2000 kPa	789.6
383.15 K, 2700 kPa	790.7
383.15 K, 3000 kPa	791.1
383.15 K, 5000 kPa	793.9
383.15 K, 10000 kPa	800.5
383.15 K, 15000 kPa	806.6
383.15 K, 20000 kPa	811.7
383.15 K, 25000 kPa	816.5
383.15 K, 30000 kPa	824
383.15 K, 35000 kPa	830
388.15 K, 100 kPa	781.9
388.15 K, 1000 kPa	783.4
388.15 K, 2000 kPa	785
388.15 K, 2700 kPa	786
388.15 K, 3000 kPa	786.5
388.15 K, 5000 kPa	789.4
388.15 K, 10000 kPa	796.3
388.15 K, 15000 kPa	802.5
388.15 K, 20000 kPa	808.1
388.15 K, 25000 kPa	813.7
388.15 K, 30000 kPa	819.7
388.15 K, 35000 kPa	826.2
393.15 K, 100 kPa	777.2
393.15 K, 1000 kPa	778.7
393.15 K, 2000 kPa	780.3
393.15 K, 2700 kPa	781.4
393.15 K, 3000 kPa	781.9
393.15 K, 5000 kPa	784.9
393.15 K, 10000 kPa	791.9
393.15 K, 15000 kPa	798.4
393.15 K, 20000 kPa	803.9
393.15 K, 25000 kPa	809.7
393.15 K, 30000 kPa	815.7
393.15 K, 35000 kPa	822.2
